# Experimental data reported in patent US9422308B2, “Derivatives of docosahexaenoylethanolamide and uses thereof” (The United States of America, as represented by the …, priority 2012, dated 2016).
# “And” between values parts separate entries of the source, which are not always exact repeats. Equal values may be shown once. Read-outs that look alike come from different tables or passages of the source.
# Assay: pharmacokinetics, plasma and brain, after IP dose in mice
# Type: in vivo
# Conditions: male C57BL/6 mice; for concentration at 0.083 hr / concentration at 0.25 hr / concentration at 0.5 hr / concentration at 1 hr / concentration at 2 hr / concentration at 3 hr / concentration at 4 hr / concentration at 8 hr: male, C57BL/6, mouse, ip, 50 mg/kg; for half-life: read-out: Terminal t1/2 (converted)
# Procedure: Each time point is […], with 11 time points=33 animals. Each time point was done in triplicate (N=3). The brain and plasma from each animal was analyzed.
# Formulation preparation: • IP: 5% DMAC+5% Solutol HS15+90% Saline • 50 mg/kg, 10 mL/kg
# Analytical method: • Instrument: LCMSMS-6 (Agilent 6410, triple quadrupole) • Matrix: Mouse plasma and brain homogenate • Analyte(s): NCGC00248435-03 • Internal standard(s): Diclofenac • MS conditions: Positive, ESI • MRM detection • NCGC00248435-03: [M+H]+m/z 400.3→72.2 • Diclofenac: [M+H]+m/z 296.0→214.0
# (§1) For plasma samples: An aliquot of 30 μL plasma sample was added with 100 μL ACN (including Diclofenac, 50 ng/mL) for protein precipitation. The mixture was vortexed for 2 min and centrifuged at 12000 rpm for 5 min. The 8 μL supernatant was injected into LC-MS/MS for analysis.
# as §1, with “For brain” for “For plasma”, “samples: Brain sample was homogenized for 2 min with 3 volumes (v/w) of homogenizing solution.” for “samples:”, “μL brain homogenate” for “μL plasma”
# The IP dosing solution was prepared in 5% DMAC+5% SolutolHS15+90% Saline. Brain was homogenized with 3 volumes (v/w) of PBS (pH7.4) and then analyzed with LC-MS/MS. The Brain concentration was corrected with a dilution factor of 4 as following: Brain concentration=Brain homogenate conc.×4, assuming 1 g wet brain equals to 1 mL. BQL=Below quantifiable limit of 1 ng/mL for NCGC00248435-03 in male C57BL/6 plasma and brain homogenate samples. NA=Not available.
structure (smiles),measurement,setting,value
"CC/C=C\C/C=C\C/C=C\C/C=C\C/C=C\C/C=C\CCC(=O)NCC(C)(C)O [Compound 1, (4Z,7Z,10Z,13Z,16Z,19Z)—N-(2-hydroxy-2-methylpropyl)docosa-4,7,10,13,16,19-hexaenamide]",clinical observation post dose,"IP 50 mg/kg, all animals",Slight mobility reduction
same,duration of mobility reduction post dose,"IP 50 mg/kg, all animals",1 h
same,brain concentration Dose Normalized Mean,"brain, 0.083 hr, IP 50 mg/kg",0.024
same,brain Concentration Individual,"brain, 0.083 hr, IP 50 mg/kg, 3 animals, listed as NCGC00248435-03, 50 mg/kg",310 ng/g and 551 ng/g
same,brain concentration Dose Normalized Mean,"brain, 0.25 hr, IP 50 mg/kg",0.054
same,brain Concentration Individual,"brain, 0.25 hr, IP 50 mg/kg, 3 animals, listed as NCGC00248435-03, 50 mg/kg",1081 ng/g and 1330 ng/g
same,brain concentration Dose Normalized Mean,"brain, 0.5 hr, IP 50 mg/kg",0.236
same,brain Concentration Individual,"brain, 0.5 hr, IP 50 mg/kg, 3 animals, listed as NCGC00248435-03, 50 mg/kg",5013 ng/g and 3992 ng/g
same,brain concentration Dose Normalized Mean,"brain, 1 hr, IP 50 mg/kg",0.152
same,brain Concentration Individual,"brain, 1 hr, IP 50 mg/kg, 3 animals, listed as NCGC00248435-03, 50 mg/kg",2086 ng/g and 3367 ng/g
same,brain concentration Dose Normalized Mean,"brain, 2 hr, IP 50 mg/kg",0.089
same,brain Concentration Individual,"brain, 2 hr, IP 50 mg/kg, 3 animals, listed as NCGC00248435-03, 50 mg/kg",2463 ng/g and 1494 ng/g
same,brain concentration Dose Normalized Mean,"brain, 3 hr, IP 50 mg/kg",0.075
same,brain Concentration Individual,"brain, 3 hr, IP 50 mg/kg, 3 animals, listed as NCGC00248435-03, 50 mg/kg",1410 ng/g and 1152 ng/g
same,brain concentration Dose Normalized Mean,"brain, 4 hr, IP 50 mg/kg",0.017
same,brain Concentration Individual,"brain, 4 hr, IP 50 mg/kg, 3 animals, listed as NCGC00248435-03, 50 mg/kg",234 ng/g and 585 ng/g and 179 ng/g
same,brain concentration Dose Normalized Mean,"brain, 8 hr, IP 50 mg/kg",0.001
same,brain Concentration Individual,"brain, 8 hr, IP 50 mg/kg, 3 animals, listed as NCGC00248435-03, 50 mg/kg",13.5 ng/g
same,brain concentration Dose Normalized Mean,"brain, 12 hr, IP 50 mg/kg",BQL (Below quantifiable limit of 1 ng/mL for NCGC00248435-03 in male C57BL/6 plasma and brain homogenate samples)
same,brain concentration Mean,"brain, 12 hr, IP 50 mg/kg",BQL (Below quantifiable limit of 1 ng/mL for NCGC00248435-03 in male C57BL/6 plasma and brain homogenate samples)
same,brain Concentration Individual,"brain, 12 hr, IP 50 mg/kg, 3 animals",BQL (Below quantifiable limit of 1 ng/mL for NCGC00248435-03 in male C57BL/6 plasma and brain homogenate samples)
same,brain concentration Dose Normalized Mean,"brain, 24 hr, IP 50 mg/kg",BQL (Below quantifiable limit of 1 ng/mL for NCGC00248435-03 in male C57BL/6 plasma and brain homogenate samples)
same,brain concentration Mean,"brain, 24 hr, IP 50 mg/kg",BQL (Below quantifiable limit of 1 ng/mL for NCGC00248435-03 in male C57BL/6 plasma and brain homogenate samples)
same,brain Concentration Individual,"brain, 24 hr, IP 50 mg/kg, 3 animals",BQL (Below quantifiable limit of 1 ng/mL for NCGC00248435-03 in male C57BL/6 plasma and brain homogenate samples)
same,AUCbrain(AUClast),"brain, IP 50 mg/kg",8458 ng·h/mL
same,concentration at 0.083 hr,"brain, brain, 0.083 hr, 3 animals, read-out: brain Concentration Individual",554 ng/g
same,concentration at 0.083 hr,"brain, brain, 0.083 hr, read-out: brain concentration Mean",472 ng/g and 1.18 µM
same,concentration at 0.25 hr,"brain, brain, 0.25 hr, 3 animals, read-out: brain Concentration Individual",853 ng/g
same,concentration at 0.25 hr,"brain, brain, 0.25 hr, read-out: brain concentration Mean",1090 ng/g and 2.72 µM
same,concentration at 0.5 hr,"brain, brain, 0.5 hr, 3 animals, read-out: brain Concentration Individual",5110 ng/g
same,concentration at 0.5 hr,"brain, brain, 0.5 hr, read-out: brain concentration Mean",4710 ng/g and 11.8 µM
same,concentration at 1 hr,"brain, brain, 1 hr, 3 animals, read-out: brain Concentration Individual",3650 ng/g
same,concentration at 1 hr,"brain, brain, 1 hr, read-out: brain concentration Mean",3040 ng/g and 7.59 µM
same,concentration at 2 hr,"brain, brain, 2 hr, 3 animals, read-out: brain Concentration Individual",1380 ng/g
same,concentration at 2 hr,"brain, brain, 2 hr, read-out: brain concentration Mean",1780 ng/g and 4.45 µM
same,concentration at 3 hr,"brain, brain, 3 hr, 3 animals, read-out: brain Concentration Individual",1930 ng/g
same,concentration at 3 hr,"brain, brain, 3 hr, read-out: brain concentration Mean",1500 ng/g and 3.75 µM
same,concentration at 4 hr,"brain, brain, 4 hr, read-out: brain concentration Mean",333 ng/g and 833 nM
same,concentration at 8 hr,"brain, brain, 8 hr, 3 animals, read-out: brain Concentration Individual",8.94 ng/g
same,concentration at 8 hr,"brain, brain, 8 hr, read-out: brain concentration Mean",12 ng/g and 30 nM
same,concentration at 0.083 hr,"plasma, plasma, 0.083 hr, 3 animals, read-out: plasma Concentration Individual",2090 ng/mL
same,concentration at 0.083 hr,"plasma, plasma, 0.083 hr, read-out: plasma concentration Mean",2620 ng/mL and 6.56 µM
same,concentration at 0.25 hr,"plasma, plasma, 0.25 hr, 3 animals, read-out: plasma Concentration Individual",6550 ng/mL
same,concentration at 0.25 hr,"plasma, plasma, 0.25 hr, read-out: plasma concentration Mean",5100 ng/mL and 12.8 µM
same,concentration at 0.5 hr,"plasma, plasma, 0.5 hr, 3 animals, read-out: plasma Concentration Individual",5960 ng/mL
same,concentration at 0.5 hr,"plasma, plasma, 0.5 hr, read-out: plasma concentration Mean",5790 ng/mL and 14.5 µM
same,concentration at 1 hr,"plasma, plasma, 1 hr, 3 animals, read-out: plasma Concentration Individual",4050 ng/mL
same,concentration at 1 hr,"plasma, plasma, 1 hr, read-out: plasma concentration Mean",3960 ng/mL and 9.91 µM
same,concentration at 2 hr,"plasma, plasma, 2 hr, 3 animals, read-out: plasma Concentration Individual",1130 ng/mL
same,concentration at 2 hr,"plasma, plasma, 2 hr, read-out: plasma concentration Mean",1020 ng/mL and 2.56 µM
same,concentration at 3 hr,"plasma, plasma, 3 hr, 3 animals, read-out: plasma Concentration Individual",321 ng/mL
same,concentration at 3 hr,"plasma, plasma, 3 hr, read-out: plasma concentration Mean",275 ng/mL and 688 nM
same,concentration at 4 hr,"plasma, plasma, 4 hr, read-out: plasma concentration Mean",100 ng/mL and 250 nM
same,concentration at 8 hr,"plasma, plasma, 8 hr, 3 animals, read-out: plasma Concentration Individual",1.83 ng/mL
same,concentration at 8 hr,"plasma, plasma, 8 hr, read-out: plasma concentration Mean",2.11 ng/mL and 5 nM
same,Kp,"mouse, brain and plasma, IP 50 mg/kg, read-out: AUCbrain/AUCplasma",1.05
same,AUC(0-inf),"mouse, brain, IP 50 mg/kg",8470 ng·h/mL
same,Cmax,"mouse, brain, IP 50 mg/kg",4710 ng/mL
same,Tmax,"mouse, brain, IP 50 mg/kg",30 min
same,half-life,"mouse, brain, IP 50 mg/kg",47.6 min
same,AUC(0-inf),"mouse, plasma, IP 50 mg/kg",8080 ng·h/mL
same,AUC(0-t),"mouse, plasma, IP 50 mg/kg",8080 ng·h/mL
same,Cmax,"mouse, plasma, IP 50 mg/kg",5790 ng/mL
same,Tmax,"mouse, plasma, IP 50 mg/kg",30 min
same,half-life,"mouse, plasma, IP 50 mg/kg",42.8 min
same,plasma concentration Dose Normalized Mean,"plasma, 0.083 hr, IP 50 mg/kg",0.131
same,plasma Concentration Individual,"plasma, 0.083 hr, IP 50 mg/kg, 3 animals, listed as NCGC00248435-03, 50 mg/kg",3063 ng/mL and 2707 ng/mL
same,plasma concentration Dose Normalized Mean,"plasma, 0.25 hr, IP 50 mg/kg",0.255
same,plasma Concentration Individual,"plasma, 0.25 hr, IP 50 mg/kg, 3 animals, listed as NCGC00248435-03, 50 mg/kg",4892 ng/mL and 3849 ng/mL
same,plasma concentration Dose Normalized Mean,"plasma, 0.5 hr, IP 50 mg/kg",0.290
same,plasma Concentration Individual,"plasma, 0.5 hr, IP 50 mg/kg, 3 animals, listed as NCGC00248435-03, 50 mg/kg",6378 ng/mL and 5036 ng/mL
same,plasma concentration Dose Normalized Mean,"plasma, 1 hr, IP 50 mg/kg",0.198
same,plasma Concentration Individual,"plasma, 1 hr, IP 50 mg/kg, 3 animals, listed as NCGC00248435-03, 50 mg/kg",4574 ng/mL and 3252 ng/mL
same,plasma concentration Dose Normalized Mean,"plasma, 2 hr, IP 50 mg/kg",0.051
same,plasma Concentration Individual,"plasma, 2 hr, IP 50 mg/kg, 3 animals, listed as NCGC00248435-03, 50 mg/kg",1064 ng/mL and 870 ng/mL
same,plasma concentration Dose Normalized Mean,"plasma, 3 hr, IP 50 mg/kg",0.014
same,plasma Concentration Individual,"plasma, 3 hr, IP 50 mg/kg, 3 animals, listed as NCGC00248435-03, 50 mg/kg",255 ng/mL and 249 ng/mL
same,plasma concentration Dose Normalized Mean,"plasma, 4 hr, IP 50 mg/kg",0.005
same,plasma Concentration Individual,"plasma, 4 hr, IP 50 mg/kg, 3 animals, listed as NCGC00248435-03, 50 mg/kg",78.4 ng/mL and 148 ng/mL and 72.9 ng/mL
same,plasma concentration Dose Normalized Mean,"plasma, 8 hr, IP 50 mg/kg",0.000
same,plasma Concentration Individual,"plasma, 8 hr, IP 50 mg/kg, 3 animals, listed as NCGC00248435-03, 50 mg/kg",2.94 ng/mL and 1.55 ng/mL
same,plasma concentration Dose Normalized Mean,"plasma, 12 hr, IP 50 mg/kg",BQL (Below quantifiable limit of 1 ng/mL for NCGC00248435-03 in male C57BL/6 plasma and brain homogenate samples)
same,plasma concentration Mean,"plasma, 12 hr, IP 50 mg/kg",BQL (Below quantifiable limit of 1 ng/mL for NCGC00248435-03 in male C57BL/6 plasma and brain homogenate samples)
same,plasma Concentration Individual,"plasma, 12 hr, IP 50 mg/kg, 3 animals",BQL (Below quantifiable limit of 1 ng/mL for NCGC00248435-03 in male C57BL/6 plasma and brain homogenate samples)
same,plasma concentration Dose Normalized Mean,"plasma, 24 hr, IP 50 mg/kg",BQL (Below quantifiable limit of 1 ng/mL for NCGC00248435-03 in male C57BL/6 plasma and brain homogenate samples)
same,plasma concentration Mean,"plasma, 24 hr, IP 50 mg/kg",BQL (Below quantifiable limit of 1 ng/mL for NCGC00248435-03 in male C57BL/6 plasma and brain homogenate samples)
same,plasma Concentration Individual,"plasma, 24 hr, IP 50 mg/kg, 3 animals",BQL (Below quantifiable limit of 1 ng/mL for NCGC00248435-03 in male C57BL/6 plasma and brain homogenate samples)
